We go through 10 compounds from the supplement of paper PMC4862054.

What all share (test): normalised response (% of control), CellTox Green; higher = less cell death (100 = DMSO, 0 = benzethonium chloride kill control)
Holding throughout (settings): incubation time: 72 h

One assay relates to Hs578T. Put shortly: (§1)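 Every value is a normalised signal taken at one concentration of a dilution series. Compound was placed in 384-well plates at 5 concentrations in 10-fold steps over a compound-specific 10,000-fold range, and 20 µl of breast cancer cell suspension was seeded onto it. After 72 h, CellTox Green fluorescence (485/520 nm) was measured first and CellTiter-Glo luminescence second, following 10 min at room temperature. Each plate was scaled to 0.1 % DMSO (100) and a positive kill control (0).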

For another assay, the system named is MCF-10A. Put shortly: as §1
The next assay deals with CAL-85-1. Put shortly:
as §1

In the next assay the test system is BT-549. Put shortly: as §1
The next assay has as its system BT-474. Put shortly: as §1
A further assay relates to CAL-51. Put shortly: as §1
A further assay relates to MDA-MB-468. Put shortly: as §1
A further assay deals with MFM-223. Put shortly: as §1
The next assay deals with MDA-MB-453. Put shortly: as §1
Another assay has as its system DU-4475. Put shortly: as §1
In another assay the test system is CAL-148. Put shortly:
as §1

Another assay concerns HCC1599. Put shortly:
as §1

The test system of another assay is MDA-MB-436. Put shortly:
as §1

A further assay deals with HCC1143. Put shortly: as §1
Another assay relates to HCC1937. Put shortly:
as §1

In the case of `NC1(c2ccc(-c3nc4ccn5c(=O)[nH]nc5c4cc3-c3ccccc3)cc2)CCC1` [MK-2206] (100 nM), the normalised response in the assay on Hs578T turned out to be 116%; with MCF-10A, 105%; in the assay on CAL-85-1, 102%; with BT-549, 133%; with BT-474 it was 103%; in the assay with CAL-51, 117%. The normalised response in the assay on MDA-MB-468 was found to be 116%; in the assay on MFM-223 it was 92%; in the assay with MDA-MB-453 it was 105%; with DU-4475, 104%; in the assay with CAL-148, 109%; in the assay on HCC1599 it was 108%. The normalised response was determined as 107% in the assay with MDA-MB-436, 97.8% with HCC1143 and 63.5% in the assay with HCC1937.

Regarding `NC(=O)c1cccc2cn(-c3ccc([C@@H]4CCCNC4)cc3)nc12` [MK-4827] (1000 nM), the normalised response in the assay with Hs578T is 113%; in the assay on MCF-10A it was 111%; with CAL-85-1, 95.6%; with BT-549 it was 134%; in the assay with BT-474, 101%; with CAL-51, 82.8%. Further, the normalised response in the assay on MDA-MB-468 was determined as 110%; in the assay with MFM-223, 101%; in the assay on MDA-MB-453, 106%; with DU-4475, 97.8%; with CAL-148, 80.5%; in the assay on HCC1599, 99.2%. In addition, the normalised response in the assay on MDA-MB-436 turned out to be 86.7%; in the assay with HCC1143, 81.1%; in the assay on HCC1937, 104%.

Turning to `CO[C@H](C(=O)[C@@H](O)[C@@H](C)O)[C@@H]1Cc2cc3cc(O[C@H]4C[C@@H](O[C@@H]5C[C@@H](O)[C@H](O)[C@@H](C)O5)[C@H](O)[C@@H](C)O4)c(C)c(O)c3c(O)c2C(=O)[C@H]1O[C@H]1C[C@@H](O[C@@H]2C[C@@H](O)[C@@H](O[C@@H]3C[C@](C)(O)[C@H](O)[C@@H](C)O3)[C@@H](C)O2)[C@H](O)[C@@H](C)O1` [Plicamycin] (10000 nM), the normalised response was 40.9% in the assay on Hs578T; 9.61% with MCF-10A; 39.3% in the assay with CAL-85-1; 79.8% in the assay with BT-549; 96% in the assay on BT-474; -45.3% in the assay on CAL-51. Moreover, the normalised response was determined as 54% in the assay with MDA-MB-468; 88.4% in the assay with MFM-223; 45.7% with MDA-MB-453; 87.9% in the assay with DU-4475; 68.9% in the assay on CAL-148; 87.9% in the assay on HCC1599. For the same compound, the figures for the normalised response in the assay on MDA-MB-436, in the assay with HCC1143 and in the assay with HCC1937 were 109%, 82.2% and 114%, respectively.

For the compound `C[C@]12C=CC(=O)C=C1CC[C@@H]1[C@@H]2C(=O)C[C@@]2(C)[C@H]1CC[C@]2(O)C(=O)CO` [Prednisone] (1000 nM), the normalised response in the assay on Hs578T worked out at 105%; in the assay with MCF-10A, 98.8%; in the assay with CAL-85-1 it was 103%; in the assay on BT-549, 120%; in the assay on BT-474, 103%; in the assay with CAL-51, 112%. Besides, the normalised response with MDA-MB-468 stood at 83.2%; in the assay with MFM-223, 84.2%; in the assay with MDA-MB-453 it was 100%; in the assay with DU-4475 it was 101%; in the assay with CAL-148, 73%; in the assay on HCC1599, 97.7%. The normalised response is 101% in the assay with MDA-MB-436, 105% with HCC1143 and 113% in the assay on HCC1937.

For the compound `CO[C@H]1C[C@@H]2CC[C@@H](C)[C@@](O)(O2)C(=O)C(=O)N2CCCC[C@H]2C(=O)O[C@H]([C@H](C)C[C@@H]2CC[C@@H](O)[C@H](OC)C2)CC(=O)[C@H](C)/C=C(\C)[C@@H](O)[C@@H](OC)C(=O)[C@H](C)C[C@H](C)/C=C/C=C/C=C/1C` [Sirolimus] (100 nM), the normalised response in the assay with Hs578T came out at 106%; in the assay with MCF-10A, 107%; with CAL-85-1, 110%; with BT-549, 93.7%; in the assay on BT-474, 103%; in the assay on CAL-51, 99.1%. The normalised response in the assay on MDA-MB-468 is 141%; with MFM-223 it was 103%; with MDA-MB-453, 106%; in the assay with DU-4475, 98.5%; in the assay on CAL-148 it was 94.4%; with HCC1599 it was 106%. Also, the normalised response turned out to be 94.5% with MDA-MB-436, 101% with HCC1143 and 49.5% in the assay with HCC1937.

Turning to `CN1CCN(c2nc(C3=C(c4c[nH]c5ccccc45)C(=O)NC3=O)c3ccccc3n2)CC1` [Sotrastaurin] (1000 nM), the normalised response in the assay with Hs578T was 105%; in the assay with MCF-10A it was 108%; in the assay on CAL-85-1, 106%; with BT-549 it was 111%; in the assay on BT-474 it was 98.8%; in the assay with CAL-51 it was 105%. Moreover, the normalised response in the assay on MDA-MB-468 was found to be 215%; in the assay with MFM-223, 102%; in the assay on MDA-MB-453, 105%; with DU-4475, 99.8%; with CAL-148 it was 58.2%; in the assay on HCC1599, 92.9%. The normalised response in the assay with MDA-MB-436 was 102%; in the assay on HCC1143 it was 58.9%; in the assay with HCC1937, 108%.

As for `COc1cc2c(N3CCN(C(=O)Nc4ccc(OC(C)C)cc4)CC3)ncnc2cc1OCCCN1CCCCC1` [Tandutinib] (100 nM), the normalised response in the assay on Hs578T turned out to be 91.6%; with MCF-10A, 108%; in the assay with CAL-85-1, 110%; in the assay on BT-549 it was 129%; in the assay on BT-474 it was 96.3%; in the assay on CAL-51, 96.4%. Moreover, the normalised response worked out at 134% in the assay with MDA-MB-468; 100% in the assay on MFM-223; 106% in the assay on MDA-MB-453; 98% in the assay on DU-4475; 100% in the assay with CAL-148; 91.2% in the assay on HCC1599. The normalised response in the assay on MDA-MB-436 is 94.2%; with HCC1143 it was 93.2%; in the assay on HCC1937 it was 112%.

Regarding `Cn1nnc2c(C(N)=O)ncn2c1=O` [Temozolomide] (1000 nM), the normalised response with Hs578T was determined as 94.3%; with MCF-10A it was 89.5%; with CAL-85-1 it was 108%; in the assay on BT-549, 108%; in the assay with BT-474, 96.5%; with CAL-51, 87.6%. For the same compound, the normalised response with MDA-MB-468 worked out at 106%; in the assay with MFM-223 it was 52%; in the assay on MDA-MB-453, 105%; in the assay on DU-4475, 100%; in the assay with CAL-148, 95.8%; with HCC1599, 94.6%. Also, the normalised response with MDA-MB-436 came out at 80.5%; in the assay with HCC1143, 50.4%; in the assay with HCC1937 it was 96.6%.

Take `Cn1nnc2c(C(N)=O)ncn2c1=O` [Temozolomide] (10000 nM): the normalised response was 111% with Hs578T; 93.2% in the assay with MCF-10A; 105% with CAL-85-1; 75.3% in the assay with BT-549; 101% in the assay on BT-474; 104% in the assay with CAL-51. Besides, the normalised response with MDA-MB-468 was 103%; with MFM-223 it was 97.3%; with MDA-MB-453 it was 101%; in the assay on DU-4475 it was 98.2%; in the assay on CAL-148, 102%; in the assay on HCC1599, 99.2%. Further, the values for the normalised response with MDA-MB-436, in the assay with HCC1143 and with HCC1937 were 94.4%, 93.6% and 105%, respectively.

Consider `CC[C@@H]1C(=O)N(C)c2cnc(Nc3ccc(C(=O)N[C@H]4CC[C@H](N5CCN(CC6CC6)CC5)CC4)cc3OC)nc2N1C(C)C` [Volasertib] (1000 nM), for which the normalised response in the assay with Hs578T is -77.7%; with MCF-10A, 56.1%; in the assay with CAL-85-1, 88.7%; in the assay on BT-549, 71%; in the assay on BT-474, 94.7%; in the assay with CAL-51, 22.4%. In addition, the normalised response in the assay on MDA-MB-468 is 118%; in the assay on MFM-223, 70.6%; in the assay with MDA-MB-453, 91.3%; in the assay on DU-4475 it was 90.4%; in the assay on CAL-148, 85.8%; with HCC1599, 74.2%. Besides, the normalised response in the assay with MDA-MB-436 is 92.7%; with HCC1143, -18.9%; in the assay on HCC1937, 59.1%.
